For one test, the target named is T1, Raf-1 (c-Raf) (Homo sapiens, UniProt P04049).
T1 construct: Sf9 insect cell lysate containing full length 6his-tagged recombinant human c-Raf; host or cells: c-Raf: Sf9 insect cell lysate; MEK1 and MAPK: E. coli
The test can be described thus: Raf1 kinase cascade assay procedure. It is filed as biochemical. The procedure:
(Specific Activity: ~200U/ml). Human Non-active Mek-1-GST and human GST-MAP kinase (recombinant proteins produced in E. coli).
• 1. Assay Dilution Buffer (ADB): 20mM MOPS, pH 7.2, 25mM β-glycerol phosphate, 5mM EGTA, 1mM sodium orthovanadate, 1mM dithiothreitol. • 2. Magnesium/ATP Cocktail: 500µM cold ATP and 75 mM magnesium chloride in ADB. • 4. Active Kinase: Human Active c-Raf: Use at 0.4U per assay point • 5. Non-active GST-MEK1: Use at 0.1µg per assay point. • 6. Non-active GST-p42 MAP Kinase: Use at 1.0 µg per assay point
• 1. TBST - Tris (50 mM, pH 7.5), NaCl (150 mM), Tween-20 (0.05 %) • 2. Superblock (Pierce) • 3. Anti-GST Ab (Pharmacia) • 4. Anti-Phospho MAPK (Sigma) • 5. Anti-Mouse Ab / Europium conjugate (Wallac)
First Stage: c-Raf Dependent Activation of GST-MEK and GST-MAPK • 1. Add […] of ADB per assay (i.e. per well of a 96 well plate) • 2. Add 10 ml of 0.5 mM cold ATP and 75 mM magnesium chloride in ADB. • 3. Add 2 ml of c-Raf (0.4U/assay), in conjunction with 1.6ml non-active MEK1 ([…]). • 4. Add 4 ml of non-active GST-p42 MAP Kinase (1.0 mg/assay). • 5. Incubate for 60 minutes at 30°C in a shaking incubator. • 6. Transfer this mixture to an anti-GST Ab coated 96 well plate (Nunc Immunosorb plates coated o/n with a-GST, then blocked with Pierce Superblock). • 7. Incubate for 60 minutes at 30°C in a shaking incubator Wash 3X with TBST, add Anti-Phospho MAPK (Sigma) (1:3000) • 6. Incubate for 60 minutes at 30°C in a shaking incubator • 7. Wash 3X with TBST, add Anti-Mouse Ab / Europium conjugate (Wallac) (1:500) • 8. Incubate for 60 minutes at 30°C in a shaking incubator • 9. Wash 3X with TBST, Read plates in Wallac Victor model Plate Reader. • 10. Collect data analyze in Excel for single point and IC50 determinations.
Typically Raf-1 assay is run at compound concentrations from 10 µM to 1 nM in half log dilutions. (% inhibition is determined for each compound concentration).

Test [1] has as its system Human adenocarcinoma cell line LoVo. The test can be described thus: Cell based screen for inhibitors of Raf kinase, quantitative assay. Conditions: 96 h, four days incubation. The procedure: (§1) • Cell Lines: Human adenocarcinoma cell line LoVo which is known to be growth inhibited by low nM concentrations of a reference standard inhibitor of Ras and human adenocarcinoma cell line CaCo-2, which is known to be growth resistant to the same reference compound. • Cell Media : RPMI 1640 with 10% Fetal Bovine Serum supplemented with L-glutamine and Pennicilin/Streptomycin. • Compounds: Supplied usually as a 10 mM stock in 100% DMSO. • Normal Saline: 150 mM NaCl • Trichloroacetic Acid (TCA): 50% (w/v) in water • Sulforhodamine B (SRB): 0.4% (w/v) in 1% Acetic Acid • Tris Base: 10 mM in water
(§2) Cells are plated at 2000 cells per well for cell line LoVo and 1500 cells for cell line CaCo-2 in 96 well plates. Cells are plated in media (200 µl) and allowed to adhere overnight at 37°C. At 24 hours post plating, compounds are added directly at a volume of 0.5 µl. For the qualitative screen (compounds screened at 25 µM) compound is added directly to cells. For the quantitative screen, compound is first diluted in DMSO to generate concentrations of compound or reference standard of: 1, 5, 10 and 25 µM. It is advisable to make the dilutions in an identical 96 well plate so that compounds can be added using a multichannel micropipettor set at 0.5 µl. The cells are then incubated for four days after which the media is removed using a 12 well manifold by first tipping the plate forward at a 45 degree angle and then inserting the manifold in an upright orientation to prevent the tips of the manifold from disturbing cells at the bottom of the plate. 200 µl of normal saline is then added to each well using an 8 well multichannel pipettor, followed by the careful addition of 50 µl of 50% TCA. The plates are then incubated for 2 hours at 4°C, after which the supernatant is removed using the same technique as above and the plated washed twice with 200 µl water. The plates are then air dried and 50 µl of SRB stock solution is carefully added so that the entire bottom of each well is covered. This again can be used using an 8 well multichannel pipettor. The SRB is incubated with fixed cells for 15 minutes at room temperature after which the SRB is removed with the manifold as described above and the plates washed twice with 350 µl of 1% acetic acid per well each time. The plates are then air dried after which the bound SRB is released from protein by the addition of 200 µl of Tris base. Resolubilizing the SRB is aided by placing the plates on a rotator for 15-30 minutes. The absorbance of each well is determined at 550 or 562 nm using a microtiter plate reader.
(§3) Each compound or dilution thereof is performed in triplicate. Outliers are identified by visual inspection of the data. Each plate should have a "0" control (vehicle only).
(§4) Quantitative Assay: A standard curve is constructed by plotting the concentration of compound against the average absorbance calculated at that concentration. […] Multiple entries for a given compound indicate that it is tested multiple times.

Test [2] deals with human adenocarcinoma cell line CaCo-2. The test is described as above. As to conditions: Caco-2, 96 h, four days incubation. The procedure:
as §1, §2, §3, §4

The test system of a further test is BxPC3. The test is described as above. Conditions: Homo sapiens, BXPC-3.
The next test has as its system LnCAP. The description is as above. Conditions: Homo sapiens.
For test [3], the target named is T2, Kinase insert Domain containing Receptor (KDR; the catalytic domain of the VEGF receptor) (Homo sapiens, UniProt P35968).
T2 construct: KDR; the catalytic domain of the VEGF receptor
T2 sequence (P35968 834-1162 limits assumed): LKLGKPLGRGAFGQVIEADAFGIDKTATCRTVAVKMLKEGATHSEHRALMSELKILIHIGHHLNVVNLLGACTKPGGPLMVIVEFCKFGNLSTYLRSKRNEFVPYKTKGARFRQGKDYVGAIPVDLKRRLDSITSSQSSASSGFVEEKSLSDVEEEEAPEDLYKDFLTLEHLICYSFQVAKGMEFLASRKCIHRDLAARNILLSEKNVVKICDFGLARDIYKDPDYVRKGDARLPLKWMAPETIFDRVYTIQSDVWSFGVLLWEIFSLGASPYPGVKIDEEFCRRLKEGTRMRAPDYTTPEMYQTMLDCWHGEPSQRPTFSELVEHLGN
The test can be described thus: Inhibition of Kinase insert Domain containing Receptor (KDR). Type of test: biochemical. As to conditions: read-out: KDR %Inh (10 µM). The procedure:
KDR protein is mixed, in the presence or absence of a inhibitor compound, with a substrate peptide to be phosphorylated (a copolymer of glutamic acid and tyrosine, E:Y :: 4:1) and other cofactors such as Mg^++ and sodium vanadate (a protein tyrosine phosphatase inhibitor) in an appropriate buffer to maintain pH (7.2). ATP and a radioactive tracer (either P^32- or P^33-labeled ATP) is then added to initiate phosphorylation. After incubation, the radioactive phosphate associated with the acid-insoluble fraction of the test procedure mixture is then quantified as reflection of substrate phosphorylation.

The test system of another test is HT-29 cells. The test is described as follows: Cell proliferation test procedure, HT-29 cells (MTS). Type of test: cell-based. As to conditions: Homo sapiens, read-out: HT-29 prolif %Inh. The procedure: HT-29 cells: Compound effectiveness at inhibiting cell proliferation on plastic is performed in a 96-well format by plating 5000 cells per well in appropriate medium on day one, followed by compound addition on day 2 in serial two-fold dilutions. On day five, compound is washed away and medium containing MTS reagent (Promega) is added. Relative cell number is determined by reading the absorbance at 490nm of a dye produced by an NAD-dependent cellular enzymatic reaction.

Test [4] concerns Rat2 fibroblasts stably transformed with v-Src/Hu c-Src fusion gene. The test can be described thus: Anchorage independent Src-transformed fibroblast proliferation test procedure. As to conditions: Rattus norvegicus, read-out: Src TF prolif %Inh. Type of test: cell-based. The text has this:
Anchorage Independent Src-transformed Fibroblast Proliferation Test Procedure: Rat2 fibroblasts stably transformed with a plasmid containing a CMV promotor controlled v-Src/Hu c-Src fusion gene in which the catalytic domain of human c-Src is inserted in place of the v-Src catalytic domain in the v-Src gene are used for the measurement of src dependent suspension growth.

Structures are written as SMILES.

T1 sequence (P04049 whole entry): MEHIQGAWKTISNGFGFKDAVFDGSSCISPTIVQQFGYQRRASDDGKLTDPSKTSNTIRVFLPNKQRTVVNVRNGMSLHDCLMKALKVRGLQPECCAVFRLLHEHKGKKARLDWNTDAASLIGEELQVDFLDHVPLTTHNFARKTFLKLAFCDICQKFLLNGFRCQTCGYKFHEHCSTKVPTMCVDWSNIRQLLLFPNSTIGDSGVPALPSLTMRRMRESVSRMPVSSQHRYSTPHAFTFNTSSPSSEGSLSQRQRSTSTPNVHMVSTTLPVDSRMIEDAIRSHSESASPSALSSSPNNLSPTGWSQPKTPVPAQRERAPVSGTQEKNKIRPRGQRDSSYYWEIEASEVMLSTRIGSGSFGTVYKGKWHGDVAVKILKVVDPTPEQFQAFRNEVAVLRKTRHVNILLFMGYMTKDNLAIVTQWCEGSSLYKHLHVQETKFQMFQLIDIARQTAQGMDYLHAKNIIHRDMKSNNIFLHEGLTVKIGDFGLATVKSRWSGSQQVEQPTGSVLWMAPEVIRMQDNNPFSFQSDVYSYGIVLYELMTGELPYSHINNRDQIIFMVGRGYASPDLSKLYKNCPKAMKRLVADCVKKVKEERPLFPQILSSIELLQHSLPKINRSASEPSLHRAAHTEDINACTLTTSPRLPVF

The term IC50 denotes the concentration needed to halve the response being measured. A high value points to a need for much substance. Turning to `COc1cc2cc3c(Nc4ccc(Sc5nccn5C)c(Cl)c4)c(C#N)cnc3cc2cc1OCCn1nccn1` [Example 153, 4-[3-chloro-4-(1-methyl-1H-imidazol-2-ylsulfanyl)phenylamino]-7-methoxy-8-(2-[1,2,3]triazol-2-yl-ethoxy)benzo[g]quinoline-3-carbonitrile], the IC50 against Raf-1 (c-Raf) was 12 nM; in test [1], 9.4 nM; in test [2], more than 1000 nM; in the test with BxPC3, 38 nM; in the test with LnCAP, 19 nM.

For `Cc1ccc(Nc2c(C#N)cnc3c2sc2ccccc23)cc1O` [Example 70, 4-(3-Hydroxy-4-methylphenylamino)benzo[4,5]thieno[3,2-b]pyridine-3-carbonitrile], the inhibition at 10 µM in test [3] turned out to be 22%.

For the compound `COc1cc2cc3c(Nc4ccc(Sc5nccn5C)c(Cl)c4)c(C#N)cnc3cc2cc1OCCN1CCN(C)CC1` [Example 152], the 50% inhibitory concentration (IC50) was 8 nM against Raf-1 (c-Raf); 29 nM in test [1]; more than 1000 nM in test [2]; 40 nM in the test on BxPC3; 32 nM in the test on LnCAP.

Consider `COc1cc2cc3c(Nc4ccc(Sc5nccn5C)c(Cl)c4)c(C#N)cnc3cc2cc1OCCCN1CCOCC1` [Example 151, 4-[3-Chloro-4-(1-methyl-1H-imidazol-2-ylsulfanyl)phenylamino]-7-methoxy-8-(3-morpholin-4-yl-propoxy)benzo[g]quinoline-3-carbonitrile], for which the IC50 against Raf-1 (c-Raf) turned out to be 7 nM; in test [1], 8.5 nM; in test [2], 700 nM; in the test on BxPC3, 40 nM; in the test with LnCAP it was 12 nM.

With `COc1cc(Nc2c(C#N)cnc3c2C=C2N=CN=C2C3)c(Br)cc1Cl` [Example 39, 8-(2-Bromo-4-chloro-5-methoxyphenylamino)imidazo[4,5-g]quinoline-7-carbonitrile], the inhibition at 10 µM in the test with HT-29 cells was 35%; in test [4], 25%. The IC50 against Raf-1 (c-Raf) was found to be 900 nM.

Turning to `COc1cc2cc3c(Nc4ccc(Sc5nccn5C)c(Cl)c4)c(C#N)cnc3cc2cc1OCCN1CCOCC1` [Example 149, 4-[3-Chloro-4-(1-methyl-1H-imidazol-2-ylsulfanyl)phenylamino]-7-methoxy-8-(2-morpholin-4-yl-ethoxy)benzo[g]quinoline-3-carbonitrile], the IC50 is 4 nM at Raf-1 (c-Raf); 6 nM in test [1]; 900 nM in test [2]; 37 nM in the test on BxPC3; 53 nM with LnCAP.

As to `COc1ccc(Cl)c(Nc2c(C#N)cnc3c2C=C2N=CN=C2C3)c1` [Example 40, 8-(2-Chloro-5-methoxy-phenylamino)imidazo[4,5-g]quinoline-7-carbonitrile], the inhibition at 10 µM in the test with HT-29 cells stood at 10%; in test [4] it was 0%. For the same compound, the IC50 on Raf-1 (c-Raf) amounted to 700 nM.

Turning to `COc1cc2cc3c(Nc4ccc(Sc5nccn5C)c(Cl)c4)c(C#N)cnc3cc2cc1OCCn1ccnn1` [Example 154, 4-[3-Chloro-4-(1-methyl-1H-imidazol-2-ylsulfanyl)phenylamino]-7-methoxy-8-(2-[1,2,3]triazol-1-yl-ethoxy)benzo[g]quinoline-3-carbonitrile], the IC50 against Raf-1 (c-Raf) is 8 nM; in test [1] it was 43 nM; in test [2] it was more than 1000 nM; in the test on BxPC3 it was 40 nM.

Turning to `N#Cc1cnc2c(c1Nc1ccc(Cl)cc1Br)C=C1N=CN=C1C2` [Example 38, 8-(2-Bromo-4-chlorophenylamino)imidazo[4,5-g]quinoline-7-carbonitrile], the inhibition at 10 µM with HT-29 cells is 25%; in test [4] it was 0%.

For `COc1cc(Nc2c(C#N)cnc3c2C=C2N=CN=C2C3)cc(OC)c1OC` [Example 42, 8-(3,4,5-Trimethoxyanilino)imidazo[4,5-g]quinoline-7-carbonitrile], the inhibition at 10 µM with HT-29 cells stood at 0%. Moreover, the inhibition at 0.22 µM in test [4] (@ dose 0.22 µM) turned out to be 50%.

These data come from patent EP1242382B1, “TRICYCLIC PROTEIN KINASE INHIBITORS” (Wyeth, priority 1999, dated 2001).
